The subject of one data set is serum IGF-I. The data set is described as follows: Monotherapy and combination mouse study: serum IGF-I. It counts as in vivo, mice. Particulars: for reduction of sIGF-I: week 1. An excerpt: (§1) The GHr and IGF-I RNA data were statistically analysed using one-way ANOVA followed by Dunnetts test when comparing treated to saline control. The sIGF-I data were statistically analyzed using one-way […] comparisons.

The next data set concerns liver GHr RNA. The data set is described as follows: Monotherapy and combination mouse study: relative liver GHR RNA. It counts as in vivo, mice. As to conditions: compared to saline control; for reduction of liver GHr RNA: week 3.
Description: as §1

The subject of a further data set is liver IGF-I RNA. The data set is described as follows: Monotherapy and combination mouse study: relative liver IGF-I RNA. Format: in vivo, mice. As to conditions: compared to saline control; for reduction of liver IGF-I RNA: week 3, p=0.05.
Description: as §1

Data set [1] relates to human growth hormone receptor mRNA. The data set is described as follows: Inhibition of human growth hormone receptor mRNA levels by antisense oligonucleotides, quantitative real-time PCR, MCF7 cells. It counts as cell-based. On the set-up: concentration or dose not given beside the values. Particulars: averages from three experiments. The method, then: “Target site” indicates the first (5′-most) nucleotide number on the particular target sequence to which the oligonucleotide binds. “% Inhib” indicates the inhibitory effect on hGHR mRNA levels by quantitative real-time PCR. Data are averages from three experiments in which MCF7 cells were treated with the antisense oligonucleotides.
All oligonucelotides in Table 1 are chimeric oligonucleotides (“gapmers”), 20 nucleotides in length, composed of a central “gap” region consisting of ten 2′-deoxynucleotides, which is flanked on both sides (5′ and 3′ directions) by five-nucleotide “wings”. The wings are composed of 2′-methoxyethyl (2′-MOE) nucleotides. The internucleoside (backbone) linkages are phosphorothioate (P═S) throughout the oligonucleotide. All uracils are 5-methyluracils (^MeU). Typically, the oligonucleotide is synthesized using 2-methoxyethyl modified thymidines not 5-methyluracils. All pyrimidines are C5 methylated (i.e., U, T, C are C5 methylated).
On the technique in general: In qPCR the cycle at which signal appears reflects the starting amount.

e = 2'-O-(2-methoxyethyl) (MOE); d = 2'-deoxy (DNA)

As to `C[C@@H](O)[C@@H]1NC(=O)[C@H](CCCCN)NC(=O)[C@@H](Cc2c[nH]c3ccccc23)NC(=O)[C@H](Cc2ccccc2)NC(=O)[C@@H](NC(=O)[C@H](N)Cc2ccccc2)CSSC[C@@H](C(=O)N[C@H](CO)[C@@H](C)O)NC1=O` [Octreotide, reference compound], the “reduction of sIGF-I” value with serum IGF-I (octreotide 1.25 mg/kg twice daily, compared to baseline control levels, p<0.04) was determined as 15%; in the data set with serum IGF-I (octreotide 1.25 mg/kg twice daily, p=0.012), 25.1%. In the data set on serum IGF-I (octreotide 1.25 mg/kg twice daily, week 3, compared to saline control, p=0.03), the “reduction of serum IGF-I” value is 25.2%. In addition, the “reduction of liver GHr RNA” value in the data set on liver GHr RNA (octreotide 1.25 mg/kg twice daily, p=0.001) came to 82.9%. Moreover, the “reduction of liver IGF-I RNA” value in the data set with liver IGF-I RNA (octreotide 1.25 mg/kg twice daily) is listed as 47.7%.

As for “Somavert: current medicinal treatment for acromegaly, used as monotherapy or with a Somatostatin agonist”, the “increase of sIGF-I levels” value with serum IGF-I (higher Somavert dose, 1 week, patent suspects an issue with the assay) is reported as greater than 2 fold. Further, the “reduction of liver GHr RNA” value in the data set with liver GHr RNA (Somavert 20 mg/kg, every other day, p=0.01) is 79.9%. Besides, in the data set with liver GHr RNA (Somavert lower dose 5 mg/kg, every other day, p=0.05), the “increase of liver GHr RNA” value worked out at 23%. For the same molecule, the “reduction of liver IGF-I RNA” value in the data set on liver IGF-I RNA (Somavert 20 mg/kg, every other day) is on record as 43.2%. The “effect on liver IGF-I RNA” value with liver IGF-I RNA (Somavert lower dose 5 mg/kg, every other day) is given as “no effect”.

With “272329 (antisense ACTTTTTGGCATCTGCCTCA; sugars from the 5' end e5 d10 e5, all phosphorothioate, methylation of C not given here) [compound 272329]”, in data set [1], the “% INHIB (inhibitory effect on hGHR mRNA levels)” value (from here on “% INHIB”) is recorded as 63%.

Take “272315 (antisense CAATGAGTACACTGGAACTG; sugars from the 5' end e5 d10 e5, all phosphorothioate, methylation of C not given here) [compound 272315]”: in data set [1], the “% INHIB” value came to 53%.

In the case of “272312 (antisense GGGTGGATCTGGTTGCACTA; sugars from the 5' end e5 d10 e5, all phosphorothioate, methylation of C not given here) [compound 272312]”, the “% INHIB” value in data set [1] is listed as 57%.

Take “272322 (antisense CTGGCTCATCAATATCTAGC; sugars from the 5' end e5 d10 e5, all phosphorothioate, methylation of C not given here) [compound 272322]”: in data set [1], the “% INHIB” value came to 84%.

“227475 (antisense CCTGCTGGTGTAATGTCGCT; sugars from the 5' end e5 d10 e5, all phosphorothioate, methylation of C not given here) [compound 227475]”: the “% INHIB” value in data set [1] was determined as 68%.

“272328 (antisense GGCATTGTCCATAAGGAAGT; sugars from the 5' end e5 d10 e5, all phosphorothioate, methylation of C not given here) [compound 272328]”: in data set [1], the “% INHIB” value came out at 85%.

For “272360 (antisense TATTAGTTACCTTGAGGAGA; sugars from the 5' end e5 d10 e5, all phosphorothioate, methylation of C not given here) [compound 272360]”, the “% INHIB” value in data set [1] was found to be 0%.

Take “227489 (antisense TGTTCAGTTGGTCTGTGCTC; sugars from the 5' end e5 d10 e5, all phosphorothioate, methylation of C not given here) [compound 227489]”: the “% INHIB” value in data set [1] came out at 75%.

“227484 (antisense TGGTAAGGCTTTCTGTGGTG; sugars from the 5' end e5 d10 e5, all phosphorothioate, methylation of C not given here) [compound 227484]”: the “% INHIB” value in data set [1] is recorded as 63%.

On to “272346 (antisense CTCTTGGAGAAAACCATAGC; sugars from the 5' end e5 d10 e5, all phosphorothioate, methylation of C not given here) [compound 272346]”, for which, in data set [1], the “% INHIB” value is on record as 67%.

For “272311 (antisense TTGCACTATTTCATCAACAG; sugars from the 5' end e5 d10 e5, all phosphorothioate, methylation of C not given here) [compound 272311]”, the “% INHIB” value in data set [1] amounted to 47%.

With “272307 (antisense GTGAATTTAGGCTCCTTAGA; sugars from the 5' end e5 d10 e5, all phosphorothioate, methylation of C not given here) [compound 272307]”, the “% INHIB” value in data set [1] is listed as 55%.

For the molecule “272305 (antisense TTGTCTTTAGGCCTGGATTA; sugars from the 5' end e5 d10 e5, all phosphorothioate, methylation of C not given here) [compound 272305]”, the “% INHIB” value in data set [1] turned out to be 68%.

Regarding “272332 (antisense CTCTTTGTCAGGCAAGGGCA; sugars from the 5' end e5 d10 e5, all phosphorothioate, methylation of C not given here) [compound 272332]”, the “% INHIB” value in data set [1] is listed as 75%.

In the case of “272336 (antisense CAATCACTGCTACTAAACAG; sugars from the 5' end e5 d10 e5, all phosphorothioate, methylation of C not given here) [compound 272336]”, the “% INHIB” value in data set [1] turned out to be 69%.

For the molecule “272323 (antisense TGTGTCTGATTCCTCAGTCT; sugars from the 5' end e5 d10 e5, all phosphorothioate, methylation of C not given here) [compound 272323]”, the “% INHIB” value in data set [1] stood at 67%.
